Experimental data as given in patent publication US10508285B2, “Method for screening of genes conferring increased tolerance to herbicides” (priority 2014, dated 2019).

Legend:
[1] = system: Cytochrome P450 wildtype (Zea mays); assay: Herbicide tolerance of transiently transformed tobacco leaf discs, PSII yield (PAM imaging); details: IC50 of PSII yield inhibition, Nicotiana benthamiana leaf discs expressing Zea mays Cytochrome P450 wildtype versus empty vector-transformed leaf discs
[2] = molecular target: T1, Transketolase wildtype (Spinacia oleracea) (Spinacia oleracea, UniProt O20250); assay: as above; format: cell-based; details: IC50 of PSII yield inhibition, Nicotiana benthamiana leaf discs expressing Spinacia oleracea Transketolase wildtype versus empty vector-transformed leaf discs
T1 construct: expressed in transfected cells; host or cells: Nicotiana benthamiana leaves, Agrobacterium tumefaciens GV2260 infiltration
T1 sequence (O20250 67-741): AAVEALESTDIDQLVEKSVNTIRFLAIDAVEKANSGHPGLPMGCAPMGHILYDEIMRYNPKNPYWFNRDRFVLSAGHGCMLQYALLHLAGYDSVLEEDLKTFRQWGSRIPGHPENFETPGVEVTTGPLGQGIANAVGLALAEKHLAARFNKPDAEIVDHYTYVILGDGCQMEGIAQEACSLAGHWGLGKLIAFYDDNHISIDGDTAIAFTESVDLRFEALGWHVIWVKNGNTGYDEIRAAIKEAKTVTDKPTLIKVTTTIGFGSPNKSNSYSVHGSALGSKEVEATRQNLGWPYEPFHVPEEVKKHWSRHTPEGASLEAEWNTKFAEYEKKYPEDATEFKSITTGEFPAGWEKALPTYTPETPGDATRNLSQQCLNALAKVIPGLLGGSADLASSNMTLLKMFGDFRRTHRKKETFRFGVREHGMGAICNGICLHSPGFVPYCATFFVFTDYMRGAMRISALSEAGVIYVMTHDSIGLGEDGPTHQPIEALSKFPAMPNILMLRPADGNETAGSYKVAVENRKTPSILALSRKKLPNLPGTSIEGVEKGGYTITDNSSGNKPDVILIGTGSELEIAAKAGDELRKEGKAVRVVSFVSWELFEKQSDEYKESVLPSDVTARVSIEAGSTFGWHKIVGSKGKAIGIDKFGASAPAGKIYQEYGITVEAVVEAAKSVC

[3] = system: Protoporphyrinogen IX Oxidase (PPO) L397Q_F420M; format: cell-based, Amaranthus tuberculatus
[4] = system: Protoporphyrinogen IX Oxidase (PPO) wildtype; assay: Herbicide tolerance of transiently transformed tobacco leaf discs, PSII yield (PAM imaging); format: cell-based; details: IC50 of PSII yield inhibition, Nicotiana benthamiana leaf discs expressing Alopecurus myosuroides PPO wildtype versus empty vector-transformed leaf discs

CC(C)N1C(=O)c2ccccc2NS1(=O)=O [Bentazon]
Tolerance factor [1]: 13.4

C/C=C1/CC2=C(C(=O)OC2=O)[C@H](CCC)[C@H](O)C(=O)C[C@@H]1O [Cornexistin]
Tolerance factor [2]: 3.6

CC(C)N(C)S(=O)(=O)NC(=O)c1cc(-n2c(=O)cc(C(F)(F)F)n(C)c2=O)c(F)cc1Cl [Saflufenacil]
Tolerance factor [3]: 150 | Tolerance factor [4]: 177
